Assays:
Type in all cases: in vivo, mouse
[1] = test system: C57BL/6J mice; experiment: Barnes maze test, old mice; details: old mice with exercise and surgery; intraperitoneal valeric acid once a week vs normal saline
Source text: After one-week acclimation, old mice (18-month old male C57BL/6J mice) weighing 30-36 g were used in three studies. In the first experiment, old mice were randomly assigned to: 1) control group, 2) exercise group in which mice had 4-week exercise at 35-40% maximal capacity, 3) surgery group, and 4) Exe+Sur group in which mice had 4-week exercise at 35-40% maximal capacity before surgery. The animals were used for learning and memory tests starting 4 days after the surgery (n=12) or their brains were harvested for biochemical assays at 48 h after the surgery (n=10 or 12), for immunofluorescent staining at 48 h and 19 days after the surgery (n=6), and for Golgi staining at 19 days after the surgery (n=8). Blood and feces from mice of the 4 groups were harvested for SCFA measurement at 7 days after the surgery (n=7) and for 16S analyses at 3 and 7 days after the surgery (n=8) or at the end of 4-week exercise protocol or at the corresponding time in the first 2 groups (n=16). Mice for tissue harvesting were different cohorts that were used for learning and memory tests. In second experiment, old mice were randomly assigned to: 1) Trans-Old Control+Sur group, and 2) Trans-Old Exe+Sur group. […] Learning and memory were evaluated from 4 days after surgery (n=10). […] The latency to enter the target box during each trial was recorded by an ANY-Maze video tracking system (SD Instruments).

[2] = test system: GDNF; experiment: GDNF in the hippocampus by ELISA; details: exercise mice with surgery; intraperitoneal valeric acid
Experimental: IL-1β, IL-6, C3 and GDNF in the hippocampus were detected by using ELISA kits. For testing the IL-1β, IL-6 and GDNF, brain tissues were homogenized on ice in the RIPA buffer containing 25 mM Tris-HCl with pH 7.6, 150 mM NaCl, 1% sodium deoxycholate, 0.1% SDS and a protease inhibitor cocktail containing 10 mg/ml aproteinin, 5 mg/ml […], 5 mg/ml leupetin and 1 mM phenylmethane sulfonylfluoride. For C3 testing, brain tissues were homogenized on ice in the PTR buffer (supplied in the kit). The supernatant was collected for ELISA detection after the homogenate was centrifuged at 13,000 g for 20 min at 4° C. and the protein concentration was determined by the BCA protein assay (Bio-Rad, Hemel Hempstead, Herts, UK). IL-1β, IL-6, C3 and GDNF in supernatant of brain were detected according to the manufacturer's instruction for ELISA, and the amount of them in each sample in the brain was normalized by its total protein content and was expressed as pg/mg protein.

[3] = test system: dendritic branches and spines of hippocampal neurons; experiment: Golgi staining, dendritic arborization; details: young adult mice with exercise and surgery; intraperitoneal valeric acid
Experimental: Golgi staining was performed using FD Rapid GolgiStain™ Kit. Nineteen days after surgery, brains of 6 mice in each group were immersed in the impregnation solution (solutions A and B: 1:1) for 2 weeks and then transferred to solution C for 3 days. Coronal brain sections at a thickness of 100 μm and around-2.7 mm from bregma were cut on a vibratome (Microslicer® 10110, Ted Pella, Inc. California, USA). As described before, more than 10 well individualized neurons in the dentate gyrus (DG) region of the hippocampus were randomly selected from each mouse, and sequential optical multiple-layers scanning images were taken at an interval 2.0 μm along the z-axis (3DHISTECH, Pannoramic MIDI, Hungary) with 20× objective. The multiple-layer scanning files were superposed to become one clear scanning file that can be viewed with Caseviewer (3DHISTECH, Hungary) on a computer. The total branch number and dendritic length were measured by Fiji software (Fiji-win64, NIH, USA). The complexity of total dendritic trees (intersections) was estimated using Sholl analysis. For spine density measurement, 5 neurons were selected from each animal. […] The spine numbers in 40 μm segments were counted by an observer who was blind to group assignment. The results were expressed as the number of spines/10 μm segments. […]

In the case of `CCCCC(=O)O` [valeric acid], the “performance in Barnes maze” value [1] is reported as “impaired the performance”, the “GDNF levels in the hippocampus” value [2] is reported as “decreased” and the “exercise attenuation of the decrease of intersections among dendritic branches” value [3] is reported as “this attenuation was blocked”. For the same compound, the “exercise attenuation of the decrease of spine density in the hippocampus” value [3] was “this attenuation was blocked”.
